{"source": "patent US20230225991A1", "about": "“COMPOUNDS FOR USE IN THE TREATMENT OF ACUTE INTERMITTENT PORPHYRIA” (VESTLANDETS INNOVASJONSSELSKAP AS, priority 2019, published 2023)", "key": {"[1]": {"target": "T1, WT-HMBS (Homo sapiens, UniProt P08397)", "T1 construct": "Full-length HMBS was cloned into pET-28a(+)-TEV vector and transformed into BL21 (DE3) cells for expression; 6xHis (N, cleaved yes); TEV protease cleavage site (N, cleaved yes); made in house; host or cells: E. coli BL21 (DE3)", "T1 sequence (P08397 1-361)": "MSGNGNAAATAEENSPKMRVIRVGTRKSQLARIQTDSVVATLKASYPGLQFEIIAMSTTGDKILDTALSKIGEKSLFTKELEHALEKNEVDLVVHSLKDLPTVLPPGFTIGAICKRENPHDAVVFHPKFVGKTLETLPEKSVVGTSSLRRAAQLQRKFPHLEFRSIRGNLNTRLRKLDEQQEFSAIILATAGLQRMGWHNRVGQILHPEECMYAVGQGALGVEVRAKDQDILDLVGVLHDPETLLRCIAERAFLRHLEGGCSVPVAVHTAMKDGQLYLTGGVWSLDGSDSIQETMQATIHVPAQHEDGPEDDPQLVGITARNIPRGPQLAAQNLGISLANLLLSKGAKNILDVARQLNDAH", "assay": "Enzymatic activity assay of recombinant HMBS, standard conditions", "format": "biochemical", "conditions": "100 μM PBG at 37° C., 84 μM compound, 2% DMSO; relative to DMSO control", "experimental": "The standard enzymatic activity of recombinant WT-HMBS was assayed at 37° C. as reported previously (Bustad et al., Bioscience reports, 2013; 33(4)). Compounds were added at a concentration of 84 μM. Absorbance of uroporphyrinogen I was determined at 405 nm. The enzyme activity in the presence of the compounds was normalized relative to DMSO-control (relative activity).\nAn enzymatic assay was performed to investigate the effect of compound BG-1 on the activity and conformational stability of HMBS. HMBS activity of the purified enzyme was measured in the absence and presence of compound BG-1 (at 84 μM) at standard conditions (37° C.) but also after pre-incubation at 70° C. for 20 min based on the high thermal stability of WT-HMBS."}, "[2]": {"tested_on": "Hmbs-deficient T1/T2−/− mice", "assay": "Mouse trial T1/T2-A, phenobarbital-induced biochemical acute attack"}, "[3]": {"target": "T2, HMBS (Homo sapiens, UniProt P08397)", "T2 sequence (P08397 1-361)": "T1 sequence (P08397 1-361)", "assay": "Octet RED96 binding (S0.5)", "design": "Full-length HMBS was cloned into pET-28a(+)-TEV vector and transformed into BL21 (DE3) cells for expression; 6xHis (N, cleaved yes); TEV protease cleavage site (N, cleaved yes); made in house; host or cells: E. coli BL21 (DE3)", "conditions": "sigmoidal binding isotherm, SSA biosensors, biotinylated HMBS; read-out: S0.5 (concentration for half-maximal binding), Octet", "experimental": "The enzyme used in the binding assays using the Octet RED96 was expressed using a new construct with an N-terminal 6×HIS affinity tag and a TEV protease cleavage site. Full-length HMBS was cloned into pET-28a(+)-TEV vector and transformed into BL21 (DE3) cells for expression. Expression was done in Terrific Broth medium with IPTG induction. Cells were cultured 16 h at 20° C. with 220 rpm shaking. After harvesting, the cells were lysed with sonication, and standard affinity purification was performed using Ni-NTA affinity matrix. Protein was eluted with 20 mM HEPES, 150 mM NaCl (gel filtration buffer), pH 8 supplemented with 400 mM imidazole. […]\nOctet RED96 system (ForteBio Biologics by Molecular Devices, LLC., San Jose, Calif.) with super streptavidin (SSA) biosensors was used as an additional method for determining the Kd-value for the binding of the compounds. […] Triplicates for the concentration series of the compounds were measured, and double reference subtraction was applied for data analysis based on the steady-state kinetics with equilibrium binding signal (Req) using ForteBio Data analysis 9.0. […]\nThe binding of compounds BG-1 and BG-2 to HMBS was analyzed by surface plasmon resonance (SPR) and response units from concentration-dependent steady state measurements were analyzed assuming a 1:1 binding model. […]"}}, "note": "Entries after “also recorded” stand apart in the source; their conditions may differ.", "data": [{"smiles": "O=Cc1cc(Cc2ccccc2Cl)cc([N+](=O)[O-])c1O", "note": "[BG-1]", "values": [{"measurement": "Relative activity, standard", "setting": "[1]", "value": "0.98 ± 0.06"}, {"measurement": "Toxicity in treated mice", "setting": "[2]; 10 mg/kg/day oral gavage, 12 days, behavior and organ appearances", "value": "No apparent toxicity; also recorded: No toxic effect was registered"}, {"measurement": "HMBS protein levels or activity in erythrocytes or liver", "setting": "[2]; 10 mg/kg/day, 12 days, compared to non-treated Hmbs-deficient mice", "value": "did not cause any significant change"}, {"measurement": "Urinary levels of ALA", "setting": "[2]; 10 mg/kg/day, day 12, compared to non-treated mice", "value": "slight decreasing tendency"}, {"measurement": "Kd", "setting": "[3]", "value": "83 ± 7", "unit": "µM"}]}]}
